Source: BindingDB's records for doi:10.7270/Q2D50KGC (Burnham Center For Chemical Genomics, 2011)

biological target: T1, Endoribonuclease toxin MazF (Escherichia coli (strain K12), UniProt P0AE70); assay: MazEF toxin-antitoxin RNase activation – biochemical, fluorescence, single-stranded RNA substrate, SAR follow-up (AID 588603)
T1 sequence (P0AE70 whole entry): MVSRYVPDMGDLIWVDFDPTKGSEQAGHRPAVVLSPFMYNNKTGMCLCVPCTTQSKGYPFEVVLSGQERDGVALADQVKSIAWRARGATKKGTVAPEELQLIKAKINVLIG

| SMILES | EC50 |
| --- | --- |
| C=CCOc1cccc(C2C(C(=O)c3ccc(C)o3)C(=O)C(=O)N2c2nccs2)c1 (stereo not drawn) [3-(5-methylfuran-2-yl)carbonyl-4-oxidanyl-2-(3-prop-2-enoxyphenyl)-1-(1,3-thiazol-2-yl)-2H-pyrrol-5-one] | 22.3 µM |
| N#Cc1ccc(-n2c(O)c3[nH][nH]c(C(=O)c4ccc5ccccc5n4)c-3c2=O)cc1 [4-[(3aS,6aS)-4,6-dioxo-3-[oxo(2-quinolinyl)methyl]-3a,6a-dihydro-1H-pyrrolo[3,4-c]pyrazol-5-yl]benzonitrile] | 7.74 µM |
| O=C(c1ccc2ccccc2n1)c1[nH][nH]c2c(O)n(-c3cccc(F)c3)c(=O)c1-2 [(3aS,6aS)-5-(3-fluorophenyl)-3-[oxo(2-quinolinyl)methyl]-3a,6a-dihydro-1H-pyrrolo[3,4-c]pyrazole-4,6-dione] | 24.4 µM |
